# Assay results: PubChem BioAssay AID248 (DTP/NCI, 2004)
# Where “and” joins values, the source holds several entries; their conditions need not be identical. Equal values may be shown once. Inconclusive results and toxic doses are left out.
# Tested on: L1210 leukemia ip in BDF1 mice, survival T/C
# Test: NCI In Vivo Anticancer Drug Screen. Data for tumor model L1210 Leukemia (intraperitoneal) in B6D2F1 (BDF1) mice
# Details: higher = longer survival
# Outline: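 Antitumor effect is assessed in tumor-bearing animals. Survival in the compound arm is compared with a vehicle-dosed control arm and expressed as their quotient.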
# [1] = endpoint: mean survival time, dose: 75.0 mg/kg/injection, schedule: Q04DX003 (ip), vehicle: saline
smiles,measurement,setting,value
C[n+]1ccc(Nc2ccc(NC(=O)c3ccc(Nc4cc[n+](C)c5ccc(N)cc45)cc3)cc2)cc1,T/C,"endpoint: mean survival time, dose: 0.5 mg/kg/injection, schedule: Q01DX009 (ip), vehicle: water",118 % of control
same,T/C,"endpoint: mean survival time, dose: 0.5 mg/kg/injection, schedule: Q01DX009 (sc), vehicle: water",151 % of control
same,T/C,"endpoint: mean survival time, dose: 1.0 mg/kg/injection, schedule: Q01DX009 (ip), vehicle: Klucel (hydroxypropylcellulose) (HPC)",112 % of control
same,T/C,"endpoint: mean survival time, dose: 1.0 mg/kg/injection, schedule: Q01DX009 (sc), vehicle: Klucel (hydroxypropylcellulose) (HPC)",159 % of control
same,T/C,"endpoint: mean survival time, dose: 1.0 mg/kg/injection, schedule: Q01DX009 (sc), vehicle: water",110 % of control and 113 % of control
same,T/C,"endpoint: mean survival time, dose: 2.0 mg/kg/injection, schedule: Q01DX009 (ip), vehicle: Klucel (hydroxypropylcellulose) (HPC)",107 % of control
same,T/C,"endpoint: mean survival time, dose: 2.0 mg/kg/injection, schedule: Q01DX009 (ip), vehicle: water",185 % of control and 204 % of control and 235 % of control
same,T/C,"endpoint: mean survival time, dose: 2.0 mg/kg/injection, schedule: Q01DX009 (sc), vehicle: water",175 % of control
same,T/C,"endpoint: mean survival time, dose: 4.0 mg/kg/injection, schedule: Q01DX009 (ip), vehicle: Klucel (hydroxypropylcellulose) (HPC)",118 % of control
same,T/C,"endpoint: mean survival time, dose: 4.0 mg/kg/injection, schedule: Q01DX009 (ip), vehicle: water",234 % of control and 267 % of control and 272 % of control
same,T/C,"endpoint: mean survival time, dose: 4.0 mg/kg/injection, schedule: Q01DX009 (sc), vehicle: Klucel (hydroxypropylcellulose) (HPC)",200 % of control
same,T/C,"endpoint: mean survival time, dose: 4.0 mg/kg/injection, schedule: Q01DX009 (sc), vehicle: water",205 % of control and 224 % of control
same,T/C,"endpoint: mean survival time, dose: 8.0 mg/kg/injection, schedule: Q01DX009 (ip), vehicle: Klucel (hydroxypropylcellulose) (HPC)",215 % of control
same,T/C,"endpoint: mean survival time, dose: 8.0 mg/kg/injection, schedule: Q01DX009 (ip), vehicle: water",175 % of control and 211 % of control and 252 % of control
same,T/C,"endpoint: mean survival time, dose: 8.0 mg/kg/injection, schedule: Q01DX009 (sc), vehicle: water",190 % of control and 222 % of control
same,T/C,"endpoint: mean survival time, dose: 10.0 mg/kg/injection, schedule: Q01DX009 (oral), vehicle: Klucel (hydroxypropylcellulose) (HPC)",104 % of control
same,T/C,"endpoint: mean survival time, dose: 12.5 mg/kg/injection, schedule: Q04DX003 (ip), vehicle: saline with Tween-80",247 % of control
same,T/C,"endpoint: mean survival time, dose: 12.5 mg/kg/injection, schedule: Q04DX003 (ip), vehicle: saline",257 % of control
same,T/C,"endpoint: mean survival time, dose: 16.0 mg/kg/injection, schedule: Q01DX009 (sc), vehicle: Klucel (hydroxypropylcellulose) (HPC)",176 % of control
same,T/C,"endpoint: mean survival time, dose: 16.0 mg/kg/injection, schedule: Q01DX009 (sc), vehicle: water",155 % of control and 171 % of control
same,T/C,"endpoint: mean survival time, dose: 20.0 mg/kg/injection, schedule: Q01DX009 (oral), vehicle: Klucel (hydroxypropylcellulose) (HPC)",105 % of control
same,T/C,"endpoint: mean survival time, dose: 25.0 mg/kg/injection, schedule: Q04DX003 (ip), vehicle: saline with Tween-80",269 % of control
same,T/C,"endpoint: mean survival time, dose: 40.0 mg/kg/injection, schedule: Q01DX009 (oral), vehicle: Klucel (hydroxypropylcellulose) (HPC)",100 % of control
same,T/C,"endpoint: mean survival time, dose: 50.0 mg/kg/injection, schedule: Q04DX003 (ip), vehicle: saline with Tween-80",248 % of control
same,T/C,"endpoint: mean survival time, dose: 50.0 mg/kg/injection, schedule: Q04DX003 (ip), vehicle: saline",253 % of control
same,T/C,[1],227 % of control
same,T/C,"endpoint: mean survival time, dose: 80.0 mg/kg/injection, schedule: Q01DX009 (oral), vehicle: Klucel (hydroxypropylcellulose) (HPC)",105 % of control
same,T/C,"endpoint: mean survival time, dose: 160.0 mg/kg/injection, schedule: Q01DX009 (oral), vehicle: Klucel (hydroxypropylcellulose) (HPC)",101 % of control
same,T/C,"endpoint: median survival time, dose: 0.25 mg/kg/injection, schedule: Q03HX008 (ip), vehicle: water",103 % of control and 121 % of control
same,T/C,"endpoint: median survival time, dose: 0.25 mg/kg/injection, schedule: Q03HX016 (ip), vehicle: water",107 % of control and 116 % of control
same,T/C,"endpoint: median survival time, dose: 0.25 mg/kg/injection, schedule: Q03HX024 (ip), vehicle: water",112 % of control and 116 % of control
same,T/C,"endpoint: median survival time, dose: 0.5 mg/kg/injection, schedule: Q01DX005 (ip), vehicle: water",102 % of control and 124 % of control
same,T/C,"endpoint: median survival time, dose: 0.5 mg/kg/injection, schedule: Q01DX009 (ip), vehicle: water",112 % of control and 122 % of control
same,T/C,"endpoint: median survival time, dose: 0.5 mg/kg/injection, schedule: Q01DX009 (sc), vehicle: water",96 % of control and 100 % of control
same,T/C,"endpoint: median survival time, dose: 0.5 mg/kg/injection, schedule: Q03HX008 (ip), vehicle: water",112 % of control
same,T/C,"endpoint: median survival time, dose: 0.5 mg/kg/injection, schedule: Q03HX016 (ip), vehicle: water",119 % of control
same,T/C,"endpoint: median survival time, dose: 0.5 mg/kg/injection, schedule: Q03HX024 (ip), vehicle: water",150 % of control
same,T/C,"endpoint: median survival time, dose: 1.0 mg/kg/injection, schedule: Q01DX005 (ip), vehicle: water",117 % of control
same,T/C,"endpoint: median survival time, dose: 1.0 mg/kg/injection, schedule: Q01DX009 (sc), vehicle: water",101 % of control and 111 % of control
same,T/C,"endpoint: median survival time, dose: 1.0 mg/kg/injection, schedule: Q03HX016 (ip), vehicle: water",169 % of control
same,T/C,"endpoint: median survival time, dose: 1.0 mg/kg/injection, schedule: Q03HX024 (ip), vehicle: water",169 % of control and 186 % of control
same,T/C,"endpoint: median survival time, dose: 2.0 mg/kg/injection, schedule: Q01DX001 (sc), vehicle: water",97 % of control and 98 % of control
same,T/C,"endpoint: median survival time, dose: 2.0 mg/kg/injection, schedule: Q01DX005 (ip), vehicle: water",179 % of control
same,T/C,"endpoint: median survival time, dose: 2.0 mg/kg/injection, schedule: Q01DX009 (ip), vehicle: water",177 % of control and 224 % of control
same,T/C,"endpoint: median survival time, dose: 2.0 mg/kg/injection, schedule: Q01DX009 (sc), vehicle: water",150 % of control
same,T/C,"endpoint: median survival time, dose: 2.0 mg/kg/injection, schedule: Q03HX008 (ip), vehicle: water",169 % of control
same,T/C,"endpoint: median survival time, dose: 2.0 mg/kg/injection, schedule: Q03HX016 (ip), vehicle: water",158 % of control and 213 % of control
same,T/C,"endpoint: median survival time, dose: 2.0 mg/kg/injection, schedule: Q03HX024 (ip), vehicle: water",197 % of control
same,T/C,"endpoint: median survival time, dose: 2.0 mg/kg/injection, schedule: Q04DX003 (ip), vehicle: water",114 % of control and 121 % of control
same,T/C,"endpoint: median survival time, dose: 2.0 mg/kg/injection, schedule: Q08DX002 (ip), vehicle: water",110 % of control and 113 % of control
same,T/C,"endpoint: median survival time, dose: 4.0 mg/kg/injection, schedule: Q01DX001 (ip), vehicle: water",110 % of control
same,T/C,"endpoint: median survival time, dose: 4.0 mg/kg/injection, schedule: Q01DX001 (sc), vehicle: water",95 % of control and 105 % of control
same,T/C,"endpoint: median survival time, dose: 4.0 mg/kg/injection, schedule: Q01DX005 (ip), vehicle: water",195 % of control
same,T/C,"endpoint: median survival time, dose: 4.0 mg/kg/injection, schedule: Q01DX009 (ip), vehicle: water",231 % of control
same,T/C,"endpoint: median survival time, dose: 4.0 mg/kg/injection, schedule: Q01DX009 (sc), vehicle: water",183 % of control and 222 % of control
same,T/C,"endpoint: median survival time, dose: 4.0 mg/kg/injection, schedule: Q03HX008 (ip), vehicle: water",202 % of control
same,T/C,"endpoint: median survival time, dose: 4.0 mg/kg/injection, schedule: Q03HX016 (ip), vehicle: water",229 % of control and 261 % of control
same,T/C,"endpoint: median survival time, dose: 4.0 mg/kg/injection, schedule: Q03HX024 (ip), vehicle: water",201 % of control and 247 % of control
same,T/C,"endpoint: median survival time, dose: 4.0 mg/kg/injection, schedule: Q04DX003 (ip), vehicle: water",124 % of control
same,T/C,"endpoint: median survival time, dose: 4.0 mg/kg/injection, schedule: Q08DX002 (ip), vehicle: water",116 % of control and 124 % of control
same,T/C,"endpoint: median survival time, dose: 8.0 mg/kg/injection, schedule: Q01DX001 (ip), vehicle: water",121 % of control
same,T/C,"endpoint: median survival time, dose: 8.0 mg/kg/injection, schedule: Q01DX001 (sc), vehicle: water",105 % of control and 113 % of control
same,T/C,"endpoint: median survival time, dose: 8.0 mg/kg/injection, schedule: Q01DX005 (ip), vehicle: water",211 % of control
same,T/C,"endpoint: median survival time, dose: 8.0 mg/kg/injection, schedule: Q01DX009 (sc), vehicle: water",178 % of control
same,T/C,"endpoint: median survival time, dose: 8.0 mg/kg/injection, schedule: Q04DX003 (ip), vehicle: water",164 % of control
same,T/C,"endpoint: median survival time, dose: 8.0 mg/kg/injection, schedule: Q08DX002 (ip), vehicle: water",153 % of control
same,T/C,"endpoint: median survival time, dose: 16.0 mg/kg/injection, schedule: Q01DX001 (sc), vehicle: water",105 % of control
same,T/C,"endpoint: median survival time, dose: 16.0 mg/kg/injection, schedule: Q01DX009 (sc), vehicle: water",95 % of control
same,T/C,"endpoint: median survival time, dose: 32.0 mg/kg/injection, schedule: Q01DX001 (sc), vehicle: water",165 % of control
same,T/C,"endpoint: median survival time, dose: 64.0 mg/kg/injection, schedule: Q01DX001 (sc), vehicle: water",192 % of control and 267 % of control
C=CCNc1nnnn1CC=C,T/C,"endpoint: mean survival time, dose: 100.0 mg/kg/injection, schedule: Q04DX003 (ip), vehicle: saline with Tween-80",102 % of control
same,T/C,"endpoint: mean survival time, dose: 200.0 mg/kg/injection, schedule: Q04DX003 (ip), vehicle: saline with Tween-80",102 % of control
same,T/C,"endpoint: mean survival time, dose: 400.0 mg/kg/injection, schedule: Q04DX003 (ip), vehicle: saline with Tween-80",96 % of control
CC(=NCC(=O)O)c1ccccc1,T/C,"endpoint: mean survival time, dose: 25.0 mg/kg/injection, schedule: Q01DX009 (ip), vehicle: saline",104 % of control
same,T/C,"endpoint: mean survival time, dose: 50.0 mg/kg/injection, schedule: Q01DX009 (ip), vehicle: saline",94 % of control
same,T/C,"endpoint: mean survival time, dose: 100.0 mg/kg/injection, schedule: Q01DX009 (ip), vehicle: saline",90 % of control
same,T/C,"endpoint: mean survival time, dose: 100.0 mg/kg/injection, schedule: Q04DX003 (ip), vehicle: saline",100 % of control
O=c1ccc2c(Cl)cc(CN(CCO)CCO)cc2[nH]1,T/C,"endpoint: mean survival time, dose: 75.0 mg/kg/injection, schedule: Q01DX001 (ip), vehicle: saline",102 % of control
same,T/C,[1],97 % of control
same,T/C,"endpoint: mean survival time, dose: 150.0 mg/kg/injection, schedule: Q01DX001 (ip), vehicle: saline",102 % of control
same,T/C,"endpoint: mean survival time, dose: 150.0 mg/kg/injection, schedule: Q04DX003 (ip), vehicle: saline",92 % of control
same,T/C,"endpoint: mean survival time, dose: 300.0 mg/kg/injection, schedule: Q01DX001 (ip), vehicle: saline",108 % of control
